Measured values from the NIST ThermoML archive (doi:10.1021/je049609w).
± gives the expanded uncertainty stated by the source.

How the values were obtained:
[1] = xn = mol fraction of the nth substance listed; conditions: 101 kPa, Liquid
[2] = refractive index (Na D-line) (dimensionless); xn = mol fraction of the nth substance listed; conditions: 101 kPa, Liquid

C1COCCO1 [1,4-dioxane] + CCOC(C)=O
Conditions | mass density, 298.15 K [kg/m3] | mass density, 303.15 K [kg/m3] | mass density, 308.15 K [kg/m3] | refractive index, 298.15 K | refractive index, 303.15 K | refractive index, 308.15 K | speed of sound, 298.15 K [m/s] | viscosity, 298.15 K [mPa·s] | viscosity, 303.15 K [mPa·s] | viscosity, 308.15 K [mPa·s]
[1], x1 = 0.1004 | 906.2 ± 1.2 | 900 ± 1.2 | 893.9 ± 1.3 | – | – | – | 1174 ± 7 | 0.467 ± 0.017 | 0.442 ± 0.017 | 0.417 ± 0.016
[1], x1 = 0.2001 | 918.8 ± 1.2 | 912.7 ± 1.3 | 906.6 ± 1.3 | – | – | – | 1193 ± 7 | 0.505 ± 0.018 | 0.478 ± 0.018 | 0.45 ± 0.017
[1], x1 = 0.3021 | 931.9 ± 1.2 | 925.8 ± 1.3 | 919.8 ± 1.3 | – | – | – | 1212 ± 7 | 0.543 ± 0.019 | 0.513 ± 0.019 | 0.482 ± 0.018
[1], x1 = 0.4002 | 944.7 ± 1.3 | 938.7 ± 1.3 | 932.7 ± 1.4 | – | – | – | 1231 ± 7 | 0.595 ± 0.021 | 0.56 ± 0.02 | 0.525 ± 0.019
[1], x1 = 0.5071 | 958.7 ± 1.3 | 952.8 ± 1.3 | 946.9 ± 1.4 | – | – | – | 1250 ± 7 | 0.646 ± 0.022 | 0.607 ± 0.021 | 0.568 ± 0.02
[1], x1 = 0.6001 | 971.1 ± 1.3 | 965.2 ± 1.4 | 959.5 ± 1.4 | – | – | – | 1269 ± 7 | 0.707 ± 0.024 | 0.671 ± 0.023 | 0.616 ± 0.021
[1], x1 = 0.6972 | 984.4 ± 1.3 | 978.6 ± 1.4 | 972.8 ± 1.4 | – | – | – | 1288 ± 7 | 0.791 ± 0.026 | 0.735 ± 0.025 | 0.684 ± 0.023
[1], x1 = 0.799 | 998.7 ± 1.4 | 993 ± 1.4 | 987.2 ± 1.5 | – | – | – | 1307 ± 7 | 0.908 ± 0.03 | 0.843 ± 0.028 | 0.778 ± 0.026
[1], x1 = 0.8991 | 1013.3 ± 1.4 | 1007.7 ± 1.4 | 1001.9 ± 1.5 | – | – | – | 1327 ± 7 | 1.029 ± 0.033 | 0.951 ± 0.031 | 0.873 ± 0.029
[1], x1 = 1 | 1028.6 ± 1.4 | 1022.9 ± 1.5 | 1017.2 ± 1.5 | – | – | – | 1345 ± 7 | 1.195 ± 0.038 | 1.095 ± 0.035 | 1.008 ± 0.032
[2], x1 = 0.1004 | – | – | – | 1.3753 ± 0.0024 | 1.3716 ± 0.0024 | 1.368 ± 0.0024 | – | – | – | –
[2], x1 = 0.2001 | – | – | – | 1.3798 ± 0.0024 | 1.3764 ± 0.0024 | 1.373 ± 0.0024 | – | – | – | –
[2], x1 = 0.3021 | – | – | – | 1.3843 ± 0.0024 | 1.3813 ± 0.0024 | 1.3782 ± 0.0024 | – | – | – | –
[2], x1 = 0.4002 | – | – | – | 1.389 ± 0.0024 | 1.3862 ± 0.0024 | 1.3834 ± 0.0024 | – | – | – | –
[2], x1 = 0.5071 | – | – | – | 1.3942 ± 0.0024 | 1.3915 ± 0.0024 | 1.3889 ± 0.0024 | – | – | – | –
[2], x1 = 0.6001 | – | – | – | 1.3991 ± 0.0024 | 1.3964 ± 0.0024 | 1.3938 ± 0.0024 | – | – | – | –
[2], x1 = 0.6972 | – | – | – | 1.4041 ± 0.0024 | 1.4015 ± 0.0024 | 1.3989 ± 0.0024 | – | – | – | –
[2], x1 = 0.799 | – | – | – | 1.4094 ± 0.0024 | 1.4069 ± 0.0024 | 1.4044 ± 0.0024 | – | – | – | –
[2], x1 = 0.8991 | – | – | – | 1.4148 ± 0.0024 | 1.4122 ± 0.0024 | 1.4097 ± 0.0024 | – | – | – | –
[2], x1 = 1 | – | – | – | 1.4203 ± 0.0024 | 1.4164 ± 0.0024 | 1.4145 ± 0.0024 | – | – | – | –

C1COCCO1 [1,4-dioxane] + OCCCl
x1 = 1
Conditions | mass density, 298.15 K [kg/m3] | mass density, 303.15 K [kg/m3] | mass density, 308.15 K [kg/m3] | refractive index, 298.15 K | refractive index, 303.15 K | refractive index, 308.15 K | speed of sound, 298.15 K [m/s] | viscosity, 298.15 K [mPa·s] | viscosity, 303.15 K [mPa·s] | viscosity, 308.15 K [mPa·s]
[1] | 1028.6 ± 1.4 | 1022.9 ± 1.5 | 1017.2 ± 1.5 | – | – | – | 1345 ± 7 | 1.196 ± 0.038 | 1.095 ± 0.035 | 1.008 ± 0.032
[2] | – | – | – | 1.4203 ± 0.0024 | 1.4164 ± 0.0024 | 1.4145 ± 0.0024 | – | – | – | –
